From DBAASP
Converted amounts (≈) assume the structure as drawn. Each block holds one compound with its values, some of them ahead of it.

Key:
Experiment in all cases: ≥ marks a high value that may be exact or a test limit, other limits are often not marked, values filed in µg/mL are converted to µM
[1] = system: Staphylococcus epidermidis KCTC 1917
[2] = system: Bacillus subtilis KCTC 3068
[3] = system: Pseudomonas aeruginosa H103
[4] = system: Enterococcus faecalis ATCC 29212
[5] = system: Escherichia coli KCTC 1682
[6] = system: Salmonella enterica serovar Typhimurium
[7] = system: Pseudomonas aeruginosa KCTC 1637
[8] = system: Staphylococcus aureus ATCC 25923
[9] = system: Staphylococcus epidermidis
Escherichia coli UB1005 = system: Escherichia coli UB1005
[10] = system: Salmonella typhimurium KCTC 1926
[11] = system: Staphylococcus aureus KCTC 1621
Candida albicans = system: Candida albicans
[12] = system: Pseudomonas aeruginosa CMCCB 10104
[13] = system: Candida albicans ATCC 2002
[14] = system: Escherichia coli ATCC 25922
Escherichia coli BW25113 = system: Escherichia coli BW25113
[15] = system: Candida albicans ATCC 90028
[16] = system: Escherichia coli ATCC 25726
[17] = system: Klebsiella pneumoniae ATCC 700603
[18] = system: Pseudomonas aeruginosa ATCC 27853

MIC [1]: 1.97 µM (≈ 3.13 µg/mL)
MIC [2]: 3.93 µM (≈ 6.25 µg/mL)
MIC [3]: 5.03 µM (≈ 8 µg/mL)
MIC [4]: 2.51 µM (≈ 4 µg/mL)
MIC [5]: 7.85 µM (≈ 12.5 µg/mL)
MIC [6]: 5.03 µM (≈ 8 µg/mL)
MIC [7]: 3.93 µM (≈ 6.25 µg/mL)
MIC [8]: 5.03 µM (≈ 8 µg/mL)
MIC [9]: 1.26 µM (≈ 2 µg/mL)
MIC (Escherichia coli UB1005): 1.26 µM (≈ 2 µg/mL)
MIC [10]: 0.98 µM (≈ 1.56 µg/mL)
MIC [11]: 1.97 µM (≈ 3.13 µg/mL)
MIC (Candida albicans): 19.5 µM (≈ 31 µg/mL)
SMILES: CC[C@H](C)[C@H](NC(=O)[C@H](CCCN=C(N)N)NC(=O)[C@H](CCCN=C(N)N)NC(=O)[C@H](CC(C)C)NC(=O)[C@@H](N)CCCN=C(N)N)C(=O)N[C@H](C(=O)N[C@H](C(=O)N[C@H](C(=O)N[C@@H](CCCN=C(N)N)C(=O)N[C@H](C(=O)N[C@@H](CCCN=C(N)N)C(=O)N[C@@H](CCCN=C(N)N)C(N)=O)C(C)C)[C@@H](C)CC)C(C)C)C(C)C [RLRRIVVIRVRR]

MIC [12]: 1.7 µM (≈ 8.2 µg/mL)
MIC [13]: 0.435 µM (≈ 2.1 µg/mL)
MIC [14]: 0.849 µM (≈ 4.1 µg/mL)
MIC [8]: 0.849 µM (≈ 4.1 µg/mL)
SMILES: CC[C@H](C)[C@H](NC(=O)CN)C(=O)N[C@@H](Cc1ccccc1)C(=O)N[C@@H](CO)C(=O)N[C@@H](CCCCN)C(=O)N[C@H](C(=O)N[C@@H](CO)C(=O)NCC(=O)N[C@@H](CCCCN)C(=O)N[C@@H](C)C(=O)N[C@H](C(=O)N[C@@H](CCCCN)C(=O)N[C@@H](CC(N)=O)C(=O)N[C@@H](CC(C)C)C(=O)N[C@@H](Cc1ccccc1)C(=O)N[C@H](C(=O)N[C@@H](CCCCN)C(=O)NCC(=O)N[C@@H](C)C(=O)N[C@@H](CCCCN)C(=O)N[C@@H](CC(N)=O)C(=O)N[C@H](C(=O)NCC(=O)N[C@@H](CCCCN)C(=O)N[C@@H](CCC(=O)O)C(=O)N[C@H](C(=O)NCC(=O)N[C@@H](CCSC)C(=O)N[C@@H](CC(=O)O)C(=O)N[C@H](C(=O)N[C@H](C(=O)N[C@@H](CCCN=C(N)N)C(=O)N[C@H](C(=O)NCC(=O)N[C@@H](CCSC)C(=O)N[C@@H](CC(=O)O)C(=O)N[C@H](C(=O)N[C@H](C(=O)NCC(=O)N[C@H]1CSSC[C@@H](C(=O)O)NC(=O)[C@H](CCC(=O)O)NC(=O)CNC(=O)[C@H](CCCCN)NC(=O)[C@H]([C@@H](C)CC)NC(=O)[C@H](CCCCN)NC1=O)C(C)C)C(C)C)[C@@H](C)O)C(C)C)C(C)C)C(C)C)C(C)C)[C@@H](C)CC)[C@@H](C)CC)[C@@H](C)CC [GIFSKISGKAIKNLFIKGAKNVGKEVGMDVVRTGMDVVGCKIKGEC]

MIC (Escherichia coli BW25113): ≥ 64 µM
SMILES: CC[C@H](C)[C@H](NC(=O)[C@H](CCCN=C(N)N)NC(=O)[C@@H]1CCCN1C(=O)[C@@H](NC(=O)[C@H](CCCN=C(N)N)NC(=O)[C@@H]1CCCN1C(=O)[C@@H](NC(=O)[C@@H]1CCCN1C(=O)[C@H](Cc1ccccc1)NC(=O)[C@@H]1CCCN1C(=O)[C@@H]1CCCN1C(=O)[C@@H]1CCCN1C(=O)[C@H](Cc1ccccc1)NC(=O)[C@H](CCCN=C(N)N)NC(=O)[C@@H]1CCCN1C(=O)[C@@H](N)CCCN=C(N)N)[C@@H](C)CC)[C@@H](C)CC)C(=O)N1CCC[C@H]1C(=O)O [RPRFPPPFPIPRIPRIP]

MIC (Escherichia coli BW25113): 8 µM (≈ 17.8 µg/mL)
SMILES: CC[C@H](C)[C@H](NC(=O)[C@@H]1CCCN1C(=O)[C@H](CCCN=C(N)N)NC(=O)[C@H](CCCN=C(N)N)NC(=O)[C@H](CCCN=C(N)N)NC(=O)[C@@H](NC(=O)[C@@H]1CCCN1C(=O)[C@@H]1CCCN1C(=O)[C@H](CCCN=C(N)N)NC(=O)[C@H](Cc1ccccc1)NC(=O)[C@@H](N)CCCN=C(N)N)[C@@H](C)CC)C(=O)N[C@@H](CCCN=C(N)N)C(=O)N1CCC[C@H]1C(=O)N1CCC[C@H]1C(=O)N[C@@H](Cc1ccccc1)C(=O)N[C@@H](Cc1ccc(O)cc1)C(=O)N1CCC[C@H]1C(=O)O [RFRPPIRRRPIRPPFYP]

MIC [15]: ≥ 100 µM
MIC [14]: 50 µM (≈ 120 µg/mL)
MIC [8]: > 200 µM
MIC [16]: ≥ 50 µM
SMILES: CC[C@H](C)[C@H](NC(=O)CN)C(=O)NCC(=O)N[C@@H](CCCCN)C(=O)N[C@@H](Cc1ccccc1)C(=O)N[C@@H](CC(C)C)C(=O)N[C@@H](Cc1cnc[nH]1)C(=O)N[C@@H](CO)C(=O)N[C@@H](C)C(=O)NCC(=O)N[C@@H](CCCCN)C(=O)N[C@@H](Cc1ccccc1)C(=O)NCC(=O)N[C@@H](CCCCN)C(=O)N[C@@H](C)C(=O)N[C@@H](Cc1ccccc1)C(=O)N[C@@H](CC(C)C)C(=O)NCC(=O)N[C@@H](CCC(=O)O)C(=O)N[C@H](C(=O)N[C@@H](CCSC)C(=O)N[C@@H](CCCCN)C(=O)N[C@@H](CO)C(=O)O)C(C)C [GIGKFLHSAGKFGKAFLGEVMKS]

MIC (Escherichia coli BW25113): 4 µM (≈ 9.6 µg/mL)
SMILES: CC[C@H](C)[C@H](NC(=O)[C@@H]1CCCN1C(=O)[C@H](Cc1c[nH]c2ccccc12)NC(=O)[C@H](CCCN=C(N)N)NC(=O)[C@H](Cc1ccccc1)NC(=O)[C@@H](N)CCCN=C(N)N)C(=O)N[C@@H](CCCN=C(N)N)C(=O)N[C@@H](CCCN=C(N)N)C(=O)N[C@@H](CCCN=C(N)N)C(=O)N1CCC[C@H]1C(=O)N[C@H](C(=O)N[C@@H](CCCN=C(N)N)C(=O)N1CCC[C@H]1C(=O)N1CCC[C@H]1C(=O)N[C@@H](Cc1ccccc1)C(=O)N[C@@H](Cc1ccc(O)cc1)C(=O)N[C@@H](Cc1c[nH]c2ccccc12)C(=O)O)[C@@H](C)CC [RFRWPIRRRPIRPPFYW]

MIC [8]: 25 µM (≈ 67.6 µg/mL)
MIC [16]: 25 µM (≈ 67.6 µg/mL)
SMILES: CSCC[C@H](NC(=O)[C@H](Cc1ccccc1)NC(=O)[C@H](CCCCN)NC(=O)CNC(=O)[C@H](C)NC(=O)[C@H](C)NC(=O)[C@H](CCCCN)NC(=O)[C@H](CC(C)C)NC(=O)CNC(=O)[C@H](Cc1ccccc1)NC(=O)[C@H](CCCCN)NC(=O)[C@H](CC(C)C)NC(=O)[C@H](C)NC(=O)[C@H](CCCCN)NC(=O)CNC(=O)[C@H](CC(C)C)NC(=O)[C@H](CC(C)C)NC(=O)[C@H](CO)NC(=O)CNC(=O)[C@H](CC(C)C)NC(=O)CN)C(=O)NCC(=O)NCC(=O)N[C@@H](CCC(=O)O)C(=O)N1CCC[C@H]1C(=O)N[C@@H](CCC(N)=O)C(=O)N[C@@H](CCC(N)=O)C(=O)O [GLGSLLGKALKFGLKAAGKFMGGEPQQ]

MIC [8]: > 160 µM
MIC [16]: ≥ 160 µM
SMILES: CSCC[C@H](NC(=O)[C@H](CC(C)C)NC(=O)[C@@H]1CCCN1C(=O)CNC(=O)[C@H](CC(C)C)NC(=O)[C@H](CC(C)C)NC(=O)[C@H](C)NC(=O)CNC(=O)[C@H](CC(C)C)NC(=O)[C@@H](N)Cc1ccccc1)C(=O)N[C@@H](CC(N)=O)C(=O)N[C@@H](CC(C)C)C(=O)N[C@@H](CC(C)C)C(=O)N[C@@H](CCC(N)=O)C(N)=O [FLGALLGPLMNLLQ]

MIC [8]: 32.8 µM (≈ 125 µg/mL)
MIC [16]: 16.4 µM (≈ 62.5 µg/mL)
SMILES: CC[C@H](C)[C@H](NC(=O)CN)C(=O)N[C@@H](Cc1ccccc1)C(=O)N[C@@H](CO)C(=O)N[C@@H](CC(C)C)C(=O)N[C@H](C(=O)N[C@@H](CCCCN)C(=O)NCC(=O)N[C@@H](C)C(=O)N[C@@H](C)C(=O)N[C@@H](CCC(N)=O)C(=O)N[C@@H](CC(C)C)C(=O)N[C@H](C(=O)NCC(=O)N[C@@H](CCCCN)C(=O)N[C@H](C(=O)N[C@H](C(=O)N[C@@H](C)C(=O)N[C@@H](CCCCN)C(=O)N[C@@H](CCC(=O)O)C(=O)N[C@@H](C)C(=O)NCC(=O)N[C@@H](CCCCN)C(=O)N[C@H](C(=O)NCC(=O)N[C@@H](CC(C)C)C(=O)N[C@@H](CCC(=O)O)C(=O)N[C@@H](CC(C)C)C(=O)N[C@@H](CCSC)C(=O)N[C@@H](C)C(=O)N[C@H]1CSSC[C@@H](C(=O)O)NC(=O)[C@H](CCC(N)=O)NC(=O)[C@H](CCCCN)NC(=O)[C@H]([C@@H](C)O)NC(=O)[C@H](C(C)C)NC(=O)[C@H](CCCCN)NC1=O)[C@@H](C)O)C(C)C)[C@@H](C)O)[C@@H](C)CC)[C@@H](C)CC [GIFSLIKGAAQLIGKTVAKEAGKTGLELMACKVTKQC]

MIC [15]: ≥ 80 µM
MIC [17]: 20 µM (≈ 59.5 µg/mL)
MIC [8]: 40 µM (≈ 119 µg/mL)
MIC [18]: 20 µM (≈ 59.5 µg/mL)
MIC [16]: 20 µM (≈ 59.5 µg/mL)
SMILES: CC[C@H](C)[C@H](NC(=O)CNC(=O)[C@H](CCCCN)NC(=O)[C@H](C)NC(=O)[C@@H](NC(=O)[C@H](CCCCN)NC(=O)[C@H](CCCCN)NC(=O)[C@H](CC(C)C)NC(=O)[C@@H](NC(=O)[C@H](CC(=O)O)NC(=O)[C@H](CCCCN)NC(=O)[C@@H](NC(=O)[C@H](Cc1ccccc1)NC(=O)CNC(=O)[C@@H]1CCCN1C(=O)[C@@H](NC(=O)[C@H](CCCCN)NC(=O)[C@@H](N)CC(C)C)[C@@H](C)CC)C(C)C)[C@@H](C)O)C(C)C)C(=O)N[C@@H](Cc1ccccc1)C(=O)N[C@@H](CO)C(=O)N[C@@H](C)C(=O)N[C@H](C(=O)N[C@@H](C)C(=O)NCC(=O)N[C@@H](C)C(=O)N[C@@H](CCSC)C(=O)N[C@H](C(=O)N1CCC[C@H]1C(=O)N[C@@H](CO)C(=O)O)[C@@H](C)O)C(C)C [LKIPGFVKDTLKKVAKGIFSAVAGAMTPS]
